Test results from US6001850A, “Thienopyridine derivatives, their production and use” (Takeda Chemical Industries, Ltd., priority 1996, dated 1999).
pIC50: −log10 of the molar value.

Molecular target: T1, human GnRH receptor (Homo sapiens, UniProt P30968)
T1 construct: expressed in transfected cells; host or cells: CHO (Chinese Hamster Ovary) cells, membrane fraction
T1 sequence (P30968 1-328): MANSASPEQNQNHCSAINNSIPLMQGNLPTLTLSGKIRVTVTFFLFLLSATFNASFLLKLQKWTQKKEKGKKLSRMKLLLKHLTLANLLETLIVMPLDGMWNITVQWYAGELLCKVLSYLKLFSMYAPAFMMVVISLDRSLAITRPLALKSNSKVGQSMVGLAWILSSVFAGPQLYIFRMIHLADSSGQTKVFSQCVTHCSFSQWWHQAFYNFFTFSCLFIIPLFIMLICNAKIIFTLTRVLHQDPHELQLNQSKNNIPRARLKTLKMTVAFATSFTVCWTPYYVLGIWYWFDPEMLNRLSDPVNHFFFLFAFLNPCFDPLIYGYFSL
Assay: Determination of inhibitory rate of 125I-leuprorelin binding (membrane fraction of CHO cells expressing human GnRH receptors)
Conditions: CHO cell membrane expressing human GnRH receptors, 25° C., 60 minutes, Hill plot
Experimental: (1)Preparation of ^125 I-leuprorelin:
Ten μl of 3×10^-4 M aqueous solution of leuprorelin and 10 μl of 0.01 mg/ml lactoperoxidase in 0.1M HEPES buffer (pH 7.4) were taken into a tube, to which was added 10 μl (37 MBq in 0.1 M HEPES buffer (pH7.4)) of an Na^125 I solution. The mixture was stirred, to which was added 10 μl of 0.001% H2O2, then reaction was allowed to proceed for 20 minutes at room temperature. To the reaction mixture was added 700 μl of a 0.05% TFA solution to cease the reaction. The product was purified by means of reversed phase HPLC. Conditions of HPLC are as follows. ^125 I-leuprorelin was eluted at a retention time of 26 to 27 minutes.
(2) Preparation of membrane fraction of CHO (Chinese Hamster Ovary) cells containing human GnRH receptors
CHO cells (10^9) expressing human GnRH receptors were suspended in a phosphate-buffered saline supplemented with 5 mM EDTA (ethylenediamine tetraacetate) (PBS-EDTA). […]
The reaction was allowed to proceed at 25° C. for 60 minutes. […] After completion of the filtration, radioactivity of the ^125 I-leuprorelin remaining on the filter paper was measured with a γ-counter.
By calculation of the following formula, the binding inhibitory rate (PMB, %) of each test compound was determined.
TB: Maximum binding radioactivity.
SB: Radioactivity obtained when a compound was added. […]

`C=C(C)COc1ccc(-c2sc3c(c2CN(C)Cc2ccccc2)c(=O)c(C(=O)C(C)C)cn3Cc2c(F)cccc2F)cc1` [Example 3(4), 2-[4-(2-methyl-2-propen-1-yl-oxy)phenyl]-4,7-dihydro-7-(2,6-difluorobenzyl)-3-(N-benzyl-N-methylaminomethyl)-5-isobutyryl-4-oxothieno[2,3-b]pyridine] gave a pIC50 of 8.00.
